Data published in patent US20180015111A1, “METHODS FOR ON DEMAND PRE-EXPOSURE PROPHYLACTIC TREATMENT OF HIV INFECTION” (INSERM (INSTITUT NATIONAL DE LA SANTE ET DE LA RECHERCHE …, priority 2015, published 2018).

Assay: Drug levels in plasma by LC-MS/MS as measure of adherence (Example 2)
Assay type: in vivo, human
Settings: TDF-FTC group, first 113 participants enrolled; limit of detection 0.1 ng/ml tenofovir, 0.4 ng/ml FTC
Method: Pill count was the first measure of adherence. Participants were asked to return their study-drug bottles at each visit, and a pill count of unused medication was performed. We also measured drug levels in plasma in the first participants who were enrolled. Plasma was tested for the presence of tenofovir and FTC with the use of a validated liquid chromatography-tandem mass spectrometry method with a limit of detection of 0.1 ng per milliliter for tenofovir and 0.4 ng per milliliter for FTC. This plasma assay was able to detect drugs up to 9 days after intake.

## Nc1nc(=O)n([C@@H]2CS[C@H](CO)O2)cc1F [FTC, 4-amino-5-fluoro-1-[(2R,5S)-2-(hydroxymethyl)-1,3-oxathiolan-5-yl]-1,2-dihydropyrimidin-2-one]
  rate of detection in plasma: 82%

## C[C@H](Cn1cnc2c(N)ncnc21)OCP(=O)(O)O [tenofovir, ({[(2R)-1-(6-amino-9H-purin-9-yl)propan-2-yl]oxy}methyl)phosphonic acid]
  rate of detection in plasma: 86%
